From ChEMBL document CHEMBL1129995, “N-[2-[(substituted chroman-8-yl)oxy]ethyl]-4-(4-methoxyphenyl)butylamines: synthesis and wide range of antagonism at the human 5-HT1A receptor” (J Med Chem, 1997)
pIC50, pKi: −log10 of the molar value. Where “and” joins values, the source holds several entries; their conditions need not be identical. Equal entries are not always repeated.

Legend:
[1] = target: T1, 5-hydroxytryptamine receptor 1A (Rattus norvegicus, UniProt P19327); test: Displacement of [3H]8-OH-DPAT from rat hippocampal 5-hydroxytryptamine 1A receptor; type: tissue-based, Hippocampus
T1 sequence (P19327 whole entry): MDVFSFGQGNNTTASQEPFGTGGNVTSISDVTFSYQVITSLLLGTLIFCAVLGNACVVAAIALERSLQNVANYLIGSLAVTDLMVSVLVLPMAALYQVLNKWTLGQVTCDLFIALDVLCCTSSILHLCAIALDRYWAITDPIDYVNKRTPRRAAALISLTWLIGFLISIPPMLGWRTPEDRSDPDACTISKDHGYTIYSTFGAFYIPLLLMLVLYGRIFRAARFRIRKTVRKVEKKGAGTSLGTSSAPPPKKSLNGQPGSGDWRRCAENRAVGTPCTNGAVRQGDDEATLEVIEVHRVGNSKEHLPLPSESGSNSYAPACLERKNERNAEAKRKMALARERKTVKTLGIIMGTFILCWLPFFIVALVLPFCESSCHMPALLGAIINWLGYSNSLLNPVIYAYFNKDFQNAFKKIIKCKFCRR

[2] = target: T2, Adrenergic receptor alpha-1 (Rattus norvegicus, UniProt P15823+P23944+P43140); test: In vitro radioligand binding assay on adrenaline Alpha-1 adrenergic receptor of rat cortex using [3H]- prazosin; type: tissue-based
T2 sequence (P15823 whole entry): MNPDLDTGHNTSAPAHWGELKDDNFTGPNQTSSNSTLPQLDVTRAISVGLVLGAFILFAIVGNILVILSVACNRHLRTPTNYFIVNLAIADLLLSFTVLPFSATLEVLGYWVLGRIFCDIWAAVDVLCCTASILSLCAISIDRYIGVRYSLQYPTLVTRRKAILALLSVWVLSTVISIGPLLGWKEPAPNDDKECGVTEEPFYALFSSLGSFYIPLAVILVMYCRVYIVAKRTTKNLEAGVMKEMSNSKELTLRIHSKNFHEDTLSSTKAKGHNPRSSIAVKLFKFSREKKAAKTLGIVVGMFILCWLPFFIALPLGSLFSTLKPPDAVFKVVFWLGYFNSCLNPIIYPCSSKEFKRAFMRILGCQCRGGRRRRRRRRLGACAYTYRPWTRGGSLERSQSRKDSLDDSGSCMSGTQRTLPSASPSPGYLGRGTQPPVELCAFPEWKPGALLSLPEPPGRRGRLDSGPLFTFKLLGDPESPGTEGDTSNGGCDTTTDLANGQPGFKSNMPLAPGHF
T2 sequence (P23944 whole entry): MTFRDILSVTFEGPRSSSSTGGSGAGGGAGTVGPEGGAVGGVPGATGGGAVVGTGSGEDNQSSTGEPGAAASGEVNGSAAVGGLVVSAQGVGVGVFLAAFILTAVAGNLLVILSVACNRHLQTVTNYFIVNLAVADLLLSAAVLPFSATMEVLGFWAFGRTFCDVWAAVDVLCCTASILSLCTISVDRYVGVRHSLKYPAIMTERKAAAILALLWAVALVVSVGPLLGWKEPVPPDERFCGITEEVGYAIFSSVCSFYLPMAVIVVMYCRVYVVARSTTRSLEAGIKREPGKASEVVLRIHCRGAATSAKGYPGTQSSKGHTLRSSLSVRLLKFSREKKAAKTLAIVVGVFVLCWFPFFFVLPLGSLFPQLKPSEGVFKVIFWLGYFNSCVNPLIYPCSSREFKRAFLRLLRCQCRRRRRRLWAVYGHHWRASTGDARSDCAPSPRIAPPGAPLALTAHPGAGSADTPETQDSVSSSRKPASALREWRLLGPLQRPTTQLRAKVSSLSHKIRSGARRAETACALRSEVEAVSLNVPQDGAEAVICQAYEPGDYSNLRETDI
T2 sequence (P43140 whole entry): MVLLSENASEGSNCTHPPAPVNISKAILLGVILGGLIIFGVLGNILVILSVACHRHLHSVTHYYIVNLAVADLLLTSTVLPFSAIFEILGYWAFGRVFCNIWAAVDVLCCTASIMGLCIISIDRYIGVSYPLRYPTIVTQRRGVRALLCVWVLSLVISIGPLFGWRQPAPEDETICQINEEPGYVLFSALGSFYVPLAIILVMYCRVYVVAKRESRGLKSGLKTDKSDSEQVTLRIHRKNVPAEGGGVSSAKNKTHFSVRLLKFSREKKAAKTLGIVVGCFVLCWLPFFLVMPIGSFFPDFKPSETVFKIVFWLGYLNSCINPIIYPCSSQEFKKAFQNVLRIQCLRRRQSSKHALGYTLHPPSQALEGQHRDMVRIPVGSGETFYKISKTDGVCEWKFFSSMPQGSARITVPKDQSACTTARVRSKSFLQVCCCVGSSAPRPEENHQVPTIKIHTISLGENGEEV

D(2) dopamine receptor = D(2) dopamine receptor (Rattus norvegicus, UniProt P61169); test: In vitro radioligand binding assay on Dopamine receptor D2 of rat striatum using [3H]- spiperone; type: tissue-based
Chain of D(2) dopamine receptor (P61169 whole entry): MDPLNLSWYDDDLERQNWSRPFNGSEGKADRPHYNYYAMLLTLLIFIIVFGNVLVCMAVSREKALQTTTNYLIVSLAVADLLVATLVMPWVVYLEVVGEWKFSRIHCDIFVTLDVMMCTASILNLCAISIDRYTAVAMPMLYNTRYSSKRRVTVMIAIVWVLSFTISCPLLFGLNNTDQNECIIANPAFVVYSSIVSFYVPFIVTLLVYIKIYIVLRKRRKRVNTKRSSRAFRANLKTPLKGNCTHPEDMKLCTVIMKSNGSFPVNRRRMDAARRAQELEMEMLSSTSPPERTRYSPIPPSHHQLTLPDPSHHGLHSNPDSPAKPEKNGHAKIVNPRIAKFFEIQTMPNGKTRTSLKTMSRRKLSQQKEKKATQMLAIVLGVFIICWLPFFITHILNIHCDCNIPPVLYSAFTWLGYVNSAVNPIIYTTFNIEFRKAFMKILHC

[3] = target: T1, 5-hydroxytryptamine receptor 1A; test: In vitro radioligand binding assay on 5-hydroxytryptamine 1A receptor using [3H]8-OH-DPAT in rat hippocampus; type: tissue-based

| SMILES | pKi [1] | Ki [2] | pKi (D(2) dopamine receptor) | pIC50 [3] | IC50 [2] |
| --- | --- | --- | --- | --- | --- |
| COc1ccc(CCCCNCCOc2cc(C)cc3c2OCCC3)cc1 | 9.11 | 35.1 nM | 8.75 |  |  |
| COc1ccc(CCCCNCCOc2c(F)ccc3c2OCCC3)cc1 | 9.46 | 71.5 nM | 7.67 |  |  |
| COc1ccc(CCCCNCCOc2cc(Cl)cc3c2OCCC3)cc1 | 8.89 | 14.3 nM | 9.31 |  |  |
| CCCN(CCC)[C@H]1CCc2c(F)ccc(O)c2C1 | 7.34 | 6080 nM | 6.21 and 6.40 |  |  |
| COc1ccc(CCCCNCCOc2cc(O)cc3c2OCCC3)cc1 | 9.57 | 98.4 nM | 8.75 |  |  |
| COc1ccc(CCCCNCCOc2cc(F)cc3c2OCCC3)cc1 | 9.66 | 2.71 nM | 9.59 |  |  |
| COc1ccc(CCCCNCCOc2cccc3c2OCCC3)cc1 | 9.93 | 5.19 nM | 9.24 |  |  |
| COc1ccc(CCCCNCCOc2cc(OC)cc3c2OCCC3)cc1 | 8.51 | 27.9 nM | 8.76 |  |  |
| COc1ccc(CCCCNCCOc2ccc(F)c3c2OCCC3)cc1 | 10.29 | 8.77 nM | 8.45 |  |  |
| O=C1C2C(C(=O)N1CCCCN1CCN(c3ncccn3)CC1)[C@H]1CC[C@@H]2C1 (some centres undefined) | 7.67 and 7.60 | 1260 nM |  |  |  |
| COc1ccccc1N1CCN(C[C@@H](C(=O)NC(C)(C)C)c2ccccc2)CC1 | 7.55 | 897 nM | 6.75 | 7.47 | 1490 nM |
